Test results: patent publication US7648993B2, “Methods of treating disorders with Group I mGluR antagonists” (Brown University, priority 2001, dated 2010)

Key:
[1] = system: hippocampal area CA1 slices; experiment: Field potential (FP) recordings in area CA1 of rat hippocampal slices (DHPG-LTD); assay type: cell-based, Long Evans rats; settings: for FP, % of pre-DHPG baseline (synaptic responses stabilized at a depressed level): after drug wash out
Description: All animals were used in accordance with procedures approved by the Brown University Institutional Animal Care and Use Committee. Hippocampal slices were prepared from postnatal day 21-30 (P21-30) Long Evans rats (Charles River, Cambridge, Mass.) and mGluR5 knockout mice (Lu et al. 1997) as described previously (Huber et al. 2000). For most experiments, CA3 was removed immediately after sectioning. Slices recovered for 1-2 h at room temperature (rats) or at 30° C. (mice) in artificial cerebrospinal fluid (ACSF) containing (in mM) 124 NaCl, 5 KCl, 1.25 NaH2PO4, 26 NaHCO3, 1 MgCl2, 2 CaCl2, and 10 dextrose, saturated with 95% O2-5% CO2. For recording, slices were placed in a submersion recording chamber and perfused with 30° C. ACSF at a rate of 2 ml/min.
Synaptically evoked field potentials (FPs) were recorded from area CA1 as described previously. Sharp microelectrode and whole cell voltage-clamp recordings were made using Axoclamp 2B and Axopatch 1D amplifiers (Axon Instruments), respectively. Sharp electrodes (80-120 M Ω) were filled with 3 M K-acetate and 10 mM KCl; patch pipettes (3-7 M Ω) were filled with (in mM) 134 K-gluconate, 6 KCl, 4 NaCl, 10 HEPES, 0.2 EGTA, 4 MgATP, 0.3 TrisGTP, and 14 phosphocreatine. The pH of the internal solution was adjusted to 7.25 with KOH, and the osmolarity was adjusted to 300 mOsm with H2O or sucrose. Only experiments in which there was less than a 15% change in series resistance were included in the analysis. Waveforms were filtered at 2 kHz and acquired and digitized at 10 kHz on a PC using Experimenter's Workbench (DataWave Systems, Boulder, Colo.).
Baseline responses were collected every 10-30 s using a stimulation intensity (10-30 μA; 0.2 ms) yielding 50-60% of the maximal response. Experiments in which there was a>5% drift in the response magnitude during the 20-min baseline period before DHPG or LFS were excluded from further analysis. All experiments with mGluR5 KO mice used wildtype littermates as controls and were performed blind to the genotype, later determined by Therion (Troy, N.Y.). LFS consisted of 900 pulses at 1 Hz. PP-LFS consisted of 900 pairs of stimuli (50-ms interstimulus interval) delivered at 1 Hz. In saturation experiments, stimulus duration was increased from 0.2 to 0.4 ms during PP-LFS.
The group data were analyzed as follows: 1) the initial slopes of the FPs and excitatory postsynaptic potentials (EPSPs), or the amplitude of the excitatory postsynaptic currents (EPSCs), for each experiment were expressed as percentages of the preconditioning or DHPG baseline average, 2) the time scale in each experiment was converted to time from the onset of conditioning or DHPG, and 3) the time-matched, normalized data were averaged across experiments and expressed in the text and figures as the means ±SE. Significant differences between groups were determined using an independent t-test or ANOVA performed on a 5-min average taken 1 h after LFS or DHPG application.
R,S-DHPG and D-2-amino-5-phosphonopentanoic acid (D-AP5) was purchased from Tocris (St. Louis, Mo.); all other chemicals were from Sigma Chemical (St Louis, Mo.). DHPG was prepared as a 100 times stock in H2O, aliquoted and stored at −20° C. Fresh stocks were made once a week. A 10 times stock of AP5 was prepared in ACSF and stored at 4° C. These stocks were diluted in ACSF to achieve their final concentrations. Picrotoxin was dissolved directly into ACSF immediately before use.

[2] = system: high-density cultured hippocampal neurons; experiment: Biotinylation and quantitative western blot of surface expressed receptors; assay type: cell-based, rat; settings: DHPG 50 μM, 5 min
Description: To confirm the effect of mGluR activation on surface AMPARs using an alternative approach, we treated high-density cultures with DHPG (50 μM, 5 min) or control medium and surface receptors were labeled with biotin 60 minutes later. Biotinylated receptors were precipitated and the ratio of surface to total GluR1 was determined by quantitative western blotting. This biochemical analysis confirmed that surface AMPARs are reduced by DHPG treatment to only 56.8±4.0% of the value in control cultures (n=4 in each treatment group; p<0.01; FIG. 6).
Biotinylation experiments were performed as previously described^35. Briefly, 2-week-old high-density cultured hippocampal neurons were treated with either control medium or 50 μM DHPG for 5 min, and incubated for 1 h at 37° C. to allow endocytosis to occur. The sister cultures were placed on ice to stop endocytosis and washed two times with ice-cold artificial cerebrospinal fluid (ACSF) containing 124 mM NaCl, 5 mM KCl, 1.25 mM NaH2PO4, 26 mM NaHCO3, 0.8 mM MgCl2, 1.8 mM CaCl2, 10 mM dextrose, and saturated with 95% O2, 5% CO2. Cultures were then incubated with ACSF containing 1 mg/ml Sulfo-NHS-LC-Biotin (Pierce Chemical Company, Rockford, Ill.) for 30 min on ice. Cultures were rinsed in TBS to quench the biotin reaction. […] Quantitative western blots were performed on both total and biotinylated (surface) proteins using anti-GluR1 C-terminal (1:1000, Upstate Biotechnology, Lake Placid, N.Y.) and anti-NR1 N-terminal antibodies (1:1000, Chemicon). […] Digital images, produced by densitometric scans of autoradiographs on a ScanJet IIcx (Hewlett Packard, Palo Alto, Calif.) with DeskScan II software (Hewlett Packard), were quantified using NIH Image 1.60 software. The surface/total ratio was calculated for each culture, and treatment groups were compared using a paired t-test. […] For display purposes, the data are expressed as the ratio of DHPG to control values.

## NC(C(=O)O)c1cc(O)cc(O)c1 (racemic) [DHPG, (RS)-3,5-dihydroxyphenylglycine]
[1]; DHPG 50 μM applied after PP-LFS in D-AP5 50 μM
  FP slope, % of pre-DHPG baseline after saturation of mGluR-dependent LTD: 100±5%
[1]; DHPG 50 μM, 5 min
  FP, % of pre-DHPG baseline (synaptic responses stabilized at a depressed level): 69±5%
[1]; DHPG 50 μM, 5 min, input not stimulated during DHPG
  DHPG-LTD, two-pathway experiment, unstimulated input: 68±5%
[1]; DHPG 50 μM, 5 min, input stimulated during DHPG
  DHPG-LTD, two-pathway experiment, stimulated input: 62±4%
[1]; DHPG 50 μM, 5 min, no AP5
  magnitude of DHPG-LTD, interleaved control slices without AP5: 85±3%
[1]; DHPG 100 μM, 5 min
  FP, % of pre-DHPG baseline (synaptic responses stabilized at a depressed level): 48±1%
[1]; DHPG applied after repeated episodes of LFS
  FP slope, % of pre-DHPG baseline after saturation of NMDAR-dependent LTD: 81±5%
[2]; 60 minutes later, cycloheximide 60 μM with DHPG where named
  surface NR1 (surface/total), % of the value in control cultures: 32.3±8.2%
[2]; biotin labeling 60 minutes later
  surface GluR1 (surface/total), % of the value in control cultures: 56.8±4.0%
